A value given as a limit tells only on which side of the number the result lay.

Chain of PHGDH (O43175 2-533 limits assumed): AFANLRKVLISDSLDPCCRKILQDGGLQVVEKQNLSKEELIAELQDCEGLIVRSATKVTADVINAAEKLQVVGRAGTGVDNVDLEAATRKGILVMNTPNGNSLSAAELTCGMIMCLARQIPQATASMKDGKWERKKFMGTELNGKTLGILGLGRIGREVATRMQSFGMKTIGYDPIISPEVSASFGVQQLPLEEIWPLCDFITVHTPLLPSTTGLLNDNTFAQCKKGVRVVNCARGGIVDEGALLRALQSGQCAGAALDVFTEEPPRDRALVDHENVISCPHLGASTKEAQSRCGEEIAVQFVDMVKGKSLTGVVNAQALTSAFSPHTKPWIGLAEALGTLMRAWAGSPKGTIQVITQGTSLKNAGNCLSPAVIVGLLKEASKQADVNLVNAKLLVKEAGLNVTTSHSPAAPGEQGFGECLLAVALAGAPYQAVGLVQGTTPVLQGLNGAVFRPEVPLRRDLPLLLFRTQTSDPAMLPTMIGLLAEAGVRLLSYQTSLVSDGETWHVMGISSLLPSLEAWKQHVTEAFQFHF

The experiment addresses PHGDH (Homo sapiens (Human), UniProt O43175). Description: 3-Phosphoglycerate Dehydrogenase (PHGDH) Fluorescence Intensity Assay, run at two NAD/3-PG ratios: PHGDH_HIGH_NAD/3-PG (250 μM NAD/500 μM 3-PG) and PHGDH_500_NAD/3-PG (500 μM NAD/500 μM 3-PG). The class given is biochemical. The settings on record: 250 μM NAD/500 μM 3-PG; read-out: IC50 (PHGDH_HIGH_NAD/3-PG).
Source text: This assay is used to identify compounds which inhibit the enzymatic activity of PHGDH which catalyzes the reaction of 3-Phosphoglycerate (3-PG) and NAD to 3-Phosphohydroxypyruvate and NADH.
The produced NADH is used in a coupled reaction for Diaphorase mediated reduction of Resazurin to Resorufin which can be measured in a Fluorescence Intensity readout.
The full length version of PHGDH enzyme was expressed in E. coli with an N-terminal HIS-tag and a TEV cleavage site.
The 3-Phosphoglycerate substrate was purchased from Sigma. NAD, Diaphorase and Resazurin were purchased from Sigma Aldrich.
Compounds are dispensed onto assay plates (black, low volume, flat bottom 384 well, Corning) using an Access Labcyte Workstation with the Labcyte Echo 55× from a DMSO solution. For the chosen highest assay concentration of 100 μM, 150 nl of compound solution are transferred from a 10 mM DMSO compound stock solution. A series of 11 concentrations (10 1:5 steps) is transferred for each compound.
The assay has been performed at two different NAD/3-PG ratios (final assay concentrations):
Plates are kept at room temperature. After 240 minutes incubation time the fluorescence signal is measured in a PerkinElmer Envision HTS Multilabel Reader with an excitation wavelength at 530-560 nm and an emission wavelength at 590 nm.
Each plate contains negative controls (diluted DMSO instead of test compound; reaction as described with PHGDH protein) and positive controls (diluted DMSO instead of test compound; reaction as described with buffer instead of PHGDH protein). Negative and positive control values are used for normalization.
IC50 values are calculated and analyzed in the MEGALAB IC50 application using a 4 parametric logistic model.
For the compound `C#Cc1cc(Cl)c2cc(C(=O)NC(C)c3ccc(S(=O)(=O)CC(=O)OC)cc3)n(C)c2c1` (stereo not drawn) [Example 01-008, methyl 2-(4-{1-[(4-chloro-6-ethynyl-1-methyl-1H-indol-2-yl)formamido]ethyl}benzenesulfonyl)acetate], the IC50 turned out to be 1690 nM.
For the compound `COC(=O)CS(=O)(=O)c1ccc([C@@H](C)NC(=O)c2cc3c4ccccc4c(C)cc3n2C)cc1` [Example 01-010, methyl 2-{4-[(1R)-1-({3,5-dimethyl-3H-benzo[e]indol-2-yl}formamido)ethyl]benzenesulfonyl}acetate], the IC50 was determined as 943 nM.
The result for `Cc1cc(Cl)c2cc(C(=O)N[C@H](C)c3ccc(S(=O)(=O)CC(=O)OC(C)(C)C)cc3)n(C)c2c1` [Example 01-014, tert-butyl 2-{4-[(1R)-1-[(4-chloro-1,6-dimethyl-1H-indol-2-yl)formamido]ethyl]benzenesulfonyl}acetate] reads 4250 nM.
Turning to `COC(=O)CS(=O)(=O)c1ccc([C@@H](C)NC(=O)c2cc3c(Cl)cc(C)c(C)c3n2C)cc1` [Example 01-015, methyl 2-{4-[(1R)-1-[(4-chloro-1,6,7-trimethyl-1H-indol-2-yl)formamido]ethyl]benzenesulfonyl}acetate], the IC50 is 583 nM.
The same measure for `COC(=O)CS(=O)(=O)c1ccc([C@H](C)NC(=O)c2cc3c(Cl)c(Cl)c(C)cc3n2C)cc1` [Example 01-017, methyl 2-{4-[(1S)-1-[(4,5-dichloro-1,6-dimethyl-1H-indol-2-yl)formamido]ethyl]benzenesulfonyl}acetate]: 6720 nM; for `COC(=O)CS(=O)(=O)c1ccc([C@@H](C)NC(=O)c2cc3cc(Cl)ccc3n2C)cc1` [Example 01-019, methyl 2-{4-[(1R)-1-[(5-chloro-1-methyl-1H-indol-2-yl)formamido]ethyl]benzenesulfonyl}acetate]: 2480 nM; for `COC(=O)CS(=O)(=O)c1ccc(C(C)NC(=O)c2cc3c(Cl)cc(I)cc3n2C)cc1` (stereo not drawn) [Example 01-020, methyl 2-(4-{1-[(4-chloro-6-iodo-1-methyl-1H-indol-2-yl)formamido]ethyl}benzenesulfonyl)acetate]: 1790 nM.
The result for `Cc1cc2c(cc(C(=O)N[C@H](C)c3ccc(S(=O)(=O)CC(=O)O[13CH3])cc3)n2C)c(Cl)c1Cl` [Example 01-022, (^13C)methyl 2-{4-[(1R)-1-[(4,5-dichloro-1,6-dimethyl-1H-indol-2-yl)formamido]ethyl]benzenesulfonyl}acetate] reads 414 nM; that for `Cc1cc(Cl)c2cc(C(=O)N[C@H](C)c3ccc(S(=O)(=O)CC(=O)OC(C)C)cc3)n(C)c2c1` [Example 01-024, propan-2-yl 2-{4-[(1R)-1-[(4-chloro-1,6-dimethyl-1H-indol-2-yl)formamido]ethyl]benzenesulfonyl}acetate], 3550 nM; that for `CCOC(=O)CS(=O)(=O)c1ccc([C@@H](C)NC(=O)c2cc3cc(Cl)c(-c4cnn(CCN5CCOCC5)c4)cc3n2C)cc1` [Example 01-025, ethyl 2-{4-[(1R)-1-[(5-chloro-1-methyl-6-{1-[2-(morpholin-4-yl)ethyl]-1H-pyrazol-4-yl}-1H-indol-2-yl)formamido]ethyl]benzenesulfonyl}acetate], 742 nM.
Take `COC(=O)CS(=O)(=O)c1ccc(CNC(=O)c2cc3c(Cl)cc(C)cc3n2C)cc1` [Example 01-030, methyl 2-(4-{[(4-chloro-1,6-dimethyl-1H-indol-2-yl)formamido]methyl}benzenesulfonyl)acetate]: the IC50 came out at 3390 nM.
The same measure for `Cc1cc(Cl)c2cc(C(=O)NCc3ccc(S(=O)(=O)CC(=O)OC(C)C)cc3)n(C)c2c1` [Example 01-031, propan-2-yl 2-(4-{[(4-chloro-1,6-dimethyl-1H-indol-2-yl)formamido]methyl}benzenesulfonyl)acetate]: over 20000 nM; for `CCOC(=O)CS(=O)(=O)c1ccc(CNC(=O)c2cc3c(Cl)cc(C)cc3n2C)cc1` [Example 01-032, ethyl 2-(4-{[(4-chloro-1,6-dimethyl-1H-indol-2-yl)formamido]methyl}benzenesulfonyl)acetate]: 5940 nM; for `Cc1cc2c(cc(C(=O)N[C@H](C)c3ccc(S(=O)(=O)CC(=O)OC(C)C)cc3)n2C)c(Cl)c1F` [Example 01-033, propan-2-yl 2-{4-[(1R)-1-[(4-chloro-5-fluoro-1,6-dimethyl-1H-indol-2-yl)formamido]ethyl]benzenesulfonyl}acetate]: 36500 nM.
The result for `Cc1cc(Cl)c2cc(C(=O)N[C@H](CO)c3ccc(S(=O)(=O)CC(=O)OC(C)C)cc3)n(C)c2n1` [Example 01-034, propan-2-yl 2-{4-[(1S)-1-({4-chloro-1,6-dimethyl-1H-pyrrolo[2,3-b]pyridin-2-yl}formamido)-2-hydroxyethyl]benzenesulfonyl}acetate] reads 1150 nM; that for `Cc1cc2c(cc(C(=O)N[C@H](CO)c3ccc(S(=O)(=O)CC(=O)OC(C)C)cc3)n2C)c(Cl)c1F` [Example 01-035, propan-2-yl 2-{4-[(1S)-1-[(4-chloro-5-fluoro-1,6-dimethyl-1H-indol-2-yl)formamido]-2-hydroxyethyl]benzenesulfonyl}acetate], 466 nM.
The same measure for `Cc1cc(Cl)c2cc(C(=O)N[C@H](C)c3ccc(S(=O)(=O)CC(=O)OC(C)C)cc3)n(C)c2n1` [Example 01-036, propan-2-yl 2-{4-[(1R)-1-({4-chloro-1,6-dimethyl-1H-pyrrolo[2,3-b]pyridin-2-yl}formamido)ethyl]benzenesulfonyl}acetate]: 1830 nM; for `Cc1cc2c(cc(C(=O)N[C@H](C)c3ccc(S(=O)(=O)CC(=O)OC(C)C)cc3)n2C)c(Cl)c1Cl` [Example 01-037, propan-2-yl 2-{4-[(1R)-1-[(4,5-dichloro-1,6-dimethyl-1H-indol-2-yl)formamido]ethyl]benzenesulfonyl}acetate]: 3370 nM; for `Cc1cc(Cl)c2cc(C(=O)N[C@H](CO)c3ccc(S(=O)(=O)CC(=O)OC(C)C)cc3)n(C)c2c1` [Example 01-038, propan-2-yl 2-{4-[(1S)-1-[(4-chloro-1,6-dimethyl-1H-indol-2-yl)formamido]-2-hydroxyethyl]benzenesulfonyl}acetate]: 261 nM.
Consider `Cc1cc2c(cc(C(=O)N[C@H](CO)c3ccc(S(=O)(=O)CC(=O)OC(C)C)cc3)n2C)c(F)c1F` [Example 01-039, propan-2-yl 2-{4-[(1S)-1-[(4,5-difluoro-1,6-dimethyl-1H-indol-2-yl)formamido]-2-hydroxyethyl]benzenesulfonyl}acetate], for which the IC50 is 1120 nM.
As to `CC(C)OC(=O)CS(=O)(=O)c1ccc([C@@H](CO)NC(=O)c2cc3c(Cl)cc(N4CCN(C)CC4)cc3n2C)cc1` [Example 01-040, propan-2-yl 2-{4-[(1S)-1-{[4-chloro-1-methyl-6-(4-methylpiperazin-1-yI)-1H-indol-2-yl]formamido}-2-hydroxyethyl]benzenesulfonyl}acetate], the IC50 was 981 nM.
As for `CC(C)OC(=O)CS(=O)(=O)c1ccc([C@@H](C)NC(=O)c2cc3c(Cl)cc(N4CCN(C)CC4)cc3n2C)cc1` [Example 01-041, propan-2-yl 2-{4-[(1R)-1-{[4-chloro-1-methyl-6-(4-methylpiperazin-1-yl)-1H-indol-2-yl]formamido}ethyl]benzenesulfonyl}acetate], the IC50 is 3140 nM.
The same measure for `COC(=O)CS(=O)(=O)c1ccc([C@@H](C)NC(=O)c2cc(-c3ccccc3)nn2C)cc1` [Example 02-002, methyl 2-{4-[(1R)-1-[(1-methyl-3-phenyl-1H-pyrazol-5-yl)formamido]ethyl]benzenesulfonyl}acetate]: 1360 nM; for `CCOC(=O)CS(=O)(=O)c1ccc([C@@H](C)NC(=O)c2cc(-c3ccccc3)nn2C)cc1` [Example 02-003, ethyl 2-{4-[(1R)-1-[(1-methyl-3-phenyl-1H-pyrazol-5-yl)formamido]ethyl]benzenesulfonyl}acetate]: 3180 nM; for `COC(=O)CS(=O)(=O)c1ccc([C@@H](C)NC(=O)c2cc(-c3cccc4cc[nH]c34)nn2C)cc1` [Example 02-006, methyl 2-{4-[(1R)-1-{[3-(1H-indol-7-yl)-1-methyl-1H-pyrazol-5-yl]formamido}ethyl]benzenesulfonyl}acetate]: 1270 nM.
Consider `COC(=O)CS(=O)(=O)c1ccc([C@H](C)NC(=O)c2cc(-c3ccccc3)nn2C)cn1` [Example 02-009, methyl 2-({5-[(1S)-1-[(1-methyl-3-phenyl-1H-pyrazol-5-yl)formamido]ethyl]pyridin-2-yl}sulfonyl)acetate], for which the IC50 is over 100000 nM.
The same measure for `COc1cc(-c2cc(C(=O)N[C@H](C)c3ccc(S(=O)(=O)CC(=O)OC(C)C)cc3)n(C)n2)ccc1F` [Example 02-012, propan-2-yl 2-{4-[(1R)-1-{[3-(4-fluoro-3-methoxyphenyl)-1-methyl-1H-pyrazol-5-yl]formamido}ethyl]benzenesulfonyl}acetate]: 3720 nM; for `COc1cc(-c2cc(C(=O)N[C@H](C)c3ccc(S(=O)(=O)CC(=O)OC(C)C)cc3)n(C)n2)ccc1Cl` [Example 02-013, propan-2-yl 2-{4-[(1R)-1-{[3-(4-chloro-3-methoxyphenyl)-1-methyl-1H-pyrazol-5-yl]formamido}ethyl]benzenesulfonyl}acetate]: 6120 nM.
The same measure for `CC(C)OC(=O)CS(=O)(=O)c1ccc([C@@H](C)NC(=O)c2cc(-c3ccc(Cl)c(Cl)c3)nn2C)cc1` [Example 02-014, propan-2-yl 2-{4-[(1R)-1-{[3-(3,4-dichlorophenyl)-1-methyl-1H-pyrazol-5-yl]formamido}ethyl]benzenesulfonyl}acetate]: 73300 nM; for `Cc1cc(-c2cc(C(=O)N[C@H](C)c3ccc(S(=O)(=O)CC(=O)OC(C)C)cc3)n(C)n2)ccc1F` [Example 02-015, propan-2-yl 2-{4-[(1R)-1-{[3-(4-fluoro-3-methylphenyl)-1-methyl-1H-pyrazol-5-yl]formamido}ethyl]benzenesulfonyl}acetate]: 5490 nM.

These data come from patent US11304929B2, “Tosylacetate based compounds and derivatives thereof as PHGDH inhibitors” (priority 2017, dated 2022).
